Measured values: PubChem BioAssay (NCI)
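Results reflect a 48-hour exposure of cells in 96-well plates to compound at five concentrations. TGI: total growth inhibition.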

Tests used:
Assay in all cases: inhibition of tumour cell growth, NCI panel, 48 h
[1] = system: MDA-MB-435
[2] = system: OVCAR-5 ovarian
[3] = system: U251 CNS
[4] = system: NCI-H226 lung
[5] = system: HCC-2998 colon
[6] = system: PC-3 prostate
[7] = system: HS 578T breast
[8] = system: CAKI-1 renal
[9] = system: SF-539 CNS
[10] = system: HCT-116 colon
[11] = system: OVCAR-3 ovarian
[12] = system: RPMI-8226 leukemia
[13] = system: HOP-92 NSCLC
[14] = system: SF-295 CNS
[15] = system: NCI-H23 lung
[16] = system: MOLT-4 leukemia
[17] = system: K-562 leukemia
[18] = system: SNB-19 CNS
[19] = system: HCT-15 colon
[20] = system: NCI/ADR-RES ovarian
[21] = system: UO-31 renal
[22] = system: CCRF-CEM leukemia
[23] = system: HL-60(TB) leukemia
[24] = system: SK-MEL-2 melanoma
[25] = system: SNB-75 CNS
[26] = system: MDA-N
[27] = system: SF-268 CNS
[28] = system: SK-MEL-28 melanoma
[29] = system: IGROV1 ovarian
[30] = system: A549 NSCLC
[31] = system: TK-10 renal
[32] = system: OVCAR-8 ovarian
[33] = system: MALME-3M melanoma
[34] = system: SK-MEL-5 melanoma
[35] = system: UACC-257 melanoma
[36] = system: NCI-H460 lung
[37] = system: HOP-62 NSCLC
[38] = system: OVCAR-4 ovarian
[39] = system: HT29 colon
[40] = system: COLO 205 colon
[41] = system: SK-OV-3 ovarian
[42] = system: DU-145 prostate
[43] = system: UACC-62 melanoma
[44] = system: BT-549 breast
[45] = system: KM12 colon
[46] = system: M14 melanoma
[47] = system: EKVX NSCLC
[48] = system: 786-0 renal
[49] = system: MDA-MB-231 breast
[50] = system: NCI-H522 lung
[51] = system: RXF 393 renal
[52] = system: ACHN renal
[53] = system: LOX IMVI melanoma
[54] = system: SW-620 colon
[55] = system: SN12C renal
[56] = system: MCF7 breast
[57] = system: A498 renal
[58] = system: T-47D breast
[59] = system: SR leukemia

O=C(NC(Cc1ccccc1)(Cc1ccc(O)cn1)C(=O)O)c1ccccc1 (centres undefined)
TGI [1]: > 100 µM | TGI [2]: > 100 µM | TGI [3]: > 100 µM | TGI [4]: > 100 µM | TGI [5]: > 100 µM | TGI [6]: > 100 µM | TGI [7]: > 100 µM | TGI [8]: > 100 µM | TGI [9]: > 100 µM | TGI [10]: > 100 µM | TGI [11]: > 100 µM | TGI [12]: > 100 µM | TGI [13]: > 100 µM | TGI [14]: > 100 µM | TGI [15]: > 100 µM | TGI [16]: > 100 µM | TGI [17]: > 100 µM | TGI [18]: > 100 µM | TGI [19]: > 100 µM | TGI [20]: > 100 µM | TGI [21]: > 100 µM | TGI [22]: > 100 µM | TGI [23]: 68.2 µM | TGI [24]: > 100 µM | TGI [25]: > 100 µM | TGI [26]: > 100 µM | TGI [27]: > 100 µM | TGI [28]: > 100 µM | TGI [29]: > 100 µM | TGI [30]: > 100 µM | TGI [31]: > 100 µM | TGI [32]: > 100 µM | TGI [33]: > 100 µM | TGI [34]: > 100 µM | TGI [35]: > 100 µM | TGI [36]: > 100 µM | TGI [37]: > 100 µM | TGI [38]: > 100 µM | TGI [39]: > 100 µM | TGI [40]: > 100 µM | TGI [41]: > 100 µM | TGI [42]: > 100 µM | TGI [43]: > 100 µM | TGI [44]: > 100 µM | TGI [45]: > 100 µM | TGI [46]: > 100 µM | TGI [47]: > 100 µM | TGI [48]: > 100 µM | TGI [49]: > 100 µM | TGI [50]: > 100 µM | TGI [51]: > 100 µM | TGI [52]: > 100 µM | TGI [53]: > 100 µM | TGI [54]: > 100 µM

CCC(C)NC1=NCC(C)S1 (centres undefined)
TGI [55]: > 100 µM | TGI [1]: > 100 µM | TGI [2]: > 100 µM | TGI [3]: > 100 µM | TGI [4]: > 100 µM | TGI [5]: > 100 µM | TGI [6]: > 100 µM | TGI [7]: > 100 µM | TGI [8]: > 100 µM | TGI [9]: > 100 µM | TGI [10]: > 100 µM | TGI [11]: > 100 µM | TGI [12]: > 100 µM | TGI [13]: > 100 µM | TGI [14]: > 100 µM | TGI [15]: > 100 µM | TGI [16]: > 100 µM | TGI [17]: > 100 µM | TGI [18]: > 100 µM | TGI [19]: > 100 µM | TGI [21]: > 100 µM | TGI [56]: > 100 µM | TGI [22]: > 100 µM | TGI [23]: > 100 µM | TGI [24]: > 100 µM | TGI [25]: > 100 µM | TGI [26]: > 100 µM | TGI [27]: > 100 µM | TGI [28]: > 100 µM | TGI [29]: > 100 µM | TGI [30]: > 100 µM | TGI [57]: > 100 µM | TGI [33]: > 100 µM | TGI [34]: > 100 µM | TGI [35]: > 100 µM | TGI [36]: > 100 µM | TGI [37]: > 100 µM | TGI [58]: > 100 µM | TGI [39]: > 100 µM | TGI [40]: > 100 µM | TGI [41]: > 100 µM | TGI [42]: > 100 µM | TGI [43]: > 100 µM | TGI [44]: > 100 µM | TGI [45]: > 100 µM | TGI [46]: > 100 µM | TGI [47]: > 100 µM | TGI [59]: > 100 µM | TGI [49]: > 100 µM | TGI [50]: > 100 µM | TGI [51]: > 100 µM | TGI [52]: > 100 µM | TGI [53]: > 100 µM | TGI [54]: > 100 µM

COc1cccc2c1C(=O)c1c(O)c3c(c(O)c1C2=O)CC(O)(C(=O)CO)CC3OC1CC(N2CCOCC2C#N)C(O)C(C)O1 (centres undefined)
TGI [55]: 0.00109 µM | TGI [1]: < 0.0001 µM | TGI [2]: 19.1 µM | TGI [4]: < 0.0001 µM | TGI [5]: < 0.0001 µM | TGI [6]: < 0.0001 µM | TGI [8]: 0.00425 µM | TGI [9]: < 0.0001 µM | TGI [10]: 12.2 µM | TGI [11]: 3.28 µM | TGI [15]: 0.128 µM | TGI [16]: < 0.0001 µM | TGI [19]: 1.56 µM | TGI [20]: 0.00357 µM | TGI [22]: < 0.0001 µM | TGI [23]: < 0.0001 µM | TGI [24]: < 0.0001 µM | TGI [26]: < 0.0001 µM | TGI [28]: < 0.0001 µM | TGI [30]: > 100 µM | TGI [35]: < 0.0001 µM | TGI [37]: < 0.0001 µM | TGI [58]: < 0.0001 µM | TGI [40]: < 0.0001 µM | TGI [41]: 2.4 µM | TGI [42]: > 100 µM | TGI [43]: < 0.0001 µM | TGI [44]: 0.00113 µM | TGI [46]: < 0.0001 µM | TGI [47]: < 0.0001 µM | TGI [59]: > 100 µM | TGI [48]: 5.22 µM | TGI [49]: < 0.0001 µM | TGI [50]: < 0.0001 µM | TGI [54]: 0.0569 µM

CN1CCc2nc(N)nc(-c3nc(N)nc4c3CN(C)CC4)c2C1
TGI [55]: > 100 µM | TGI [1]: > 100 µM | TGI [2]: > 100 µM | TGI [3]: > 100 µM | TGI [4]: > 100 µM | TGI [6]: > 100 µM | TGI [7]: > 100 µM | TGI [8]: > 100 µM | TGI [9]: > 100 µM | TGI [10]: > 100 µM | TGI [11]: > 100 µM | TGI [12]: > 100 µM | TGI [13]: > 100 µM | TGI [14]: > 100 µM | TGI [15]: > 100 µM | TGI [16]: > 100 µM | TGI [17]: > 100 µM | TGI [18]: > 100 µM | TGI [19]: > 100 µM | TGI [20]: > 100 µM | TGI [21]: > 100 µM | TGI [56]: > 100 µM | TGI [23]: > 100 µM | TGI [24]: > 100 µM | TGI [26]: > 100 µM | TGI [27]: > 100 µM | TGI [28]: > 100 µM | TGI [29]: > 100 µM | TGI [30]: > 100 µM | TGI [57]: > 100 µM | TGI [31]: > 100 µM | TGI [32]: > 100 µM | TGI [33]: > 100 µM | TGI [34]: > 100 µM | TGI [35]: > 100 µM | TGI [36]: > 100 µM | TGI [37]: > 100 µM | TGI [38]: > 100 µM | TGI [58]: > 100 µM | TGI [39]: > 100 µM | TGI [40]: > 100 µM | TGI [41]: > 100 µM | TGI [42]: > 100 µM | TGI [43]: > 100 µM | TGI [44]: > 100 µM | TGI [45]: > 100 µM | TGI [46]: > 100 µM | TGI [47]: > 100 µM | TGI [59]: > 100 µM | TGI [48]: > 100 µM | TGI [49]: > 100 µM | TGI [50]: > 100 µM | TGI [51]: > 100 µM | TGI [52]: > 100 µM | TGI [53]: > 100 µM | TGI [54]: > 100 µM
